Like-named read-outs stand apart in the source and are kept apart here.
How the values were obtained:
Caco-2 cell monolayer = system: Caco-2 cell monolayer; parameters: method as in PMID 36680806, PMID 26501241; conditions: Caco-2 cell monolayer model; cited from earlier work
[1] = Verification pharmacokinetic experiment in rats, SPC 60 g crude drug/kg by gavage, UFLC-MS/MS, DAS 2.0; format: in vivo, rat
Experimental: To validate the accuracy of PBPK models in predicting the pharmacokinetics of SPC constituents at different oral doses, the pharmacokinetic behavior of these four constituents from SPC in rats were analyzed by UFLC-MS/MS. The parameters were calculated using Drug and Statistics Software version 2.0, and then these validated values (Val.) were used to check the accuracy of the Calc. values and evaluated by FE.
The pharmacokinetic fitting results of rats given 60 g crude drug/kg body weight of SPC by gavage were verified by experiments. The verification experiment was conducted according to our previous pharmacokinetic study. In brief, 1.5 mL suspension of SPC was given to rats by oral administration; 300 μL blood samples from orbital venous at 0.083, 0.25, 0.5, 0.75, 1.0, 1.5, 2, 3, 4, 6, 8, and 12 h were collected and pretreated with heparin sodium. After centrifugation, the plasma samples were obtained and further processed for subsequent detection by UFLC-MS/MS; the detailed analysis method is shown in Supplementary Data (Table S1 and Figure S1). The concentration-time curve of each compound was gained, and the pharmacokinetic parameters were calculated using DAS 2.0 software (DAS 2.0, Mathematical Pharmacology Professional Committee of China, Shanghai, China). The results of these four constituents were compared with the PBPK parameters predicted in rats at an oral dose of 60 g crude drug/kg body weight of SPC.
1. The instrument and analytical conditions of UFLC-MS/MS method
4 constituents (1. 3′-methoxydadizein; 2. 8-O-methylretusin; 3. Daidzin; and 4. […]
The internal standard (IS) carbamazepine with a purity of more than 99 % was purchased from Beijing JK-chemical technology Co. Ltd., (Beijing China). Heparin sodium was gained from Tianjin biochemical pharmaceutical Co. Ltd, (Tianjin, China).
Ammonium acetate of HPLC grade, methanol and acetonitrile of LC-MS grade were purchased from Sigma (LOT# BCBK6717V, sigma-aldrich, Co., MO, USA) and Fisher (Fisher Corp., Fair lawn, NJ, USA) respectively. The experimental ultrapure water was prepared by Millipore Milli-Q ultrapure water preparation apparatus (Millipore Sigma, […]
The detailed information of Shimadzu UFLC-MS/MS 8050 liquid mass system equipped with Nexera X2UFLC liquid chromatography system and 8050 triple quadrupole mass spectrometers with an electrospray ionization source were listed in our previous study. The supporting LabSolution workstation was used for data […]
The separation without superposition of analytes in plasma sample was achieved on a Kinetex® C18 chromatographic column (100mm×2.1mm i.d.; 2.6 μm, 100 Å; Phenomenex, Inc., Torrance, CA, USA) assembled with a Phenomenex p/n AJ0-9000 C18 protection column. The mobile phase was consisted of 0.5 mM ammonium acetate in water (A) and ACN (B). The gradient elution program was selected ultimately as […]
95 % B (18.7–22 min). Column and automatic sampler temperature were set as 30 °C and 4 °C respectively. The flow rate of mobile phase was 0.35 mL/min while sample injection volume was 4 μL.
Multiple reaction monitoring (MRM) of positive or negative modes were used as scanning modes for the analytes and IS. Other essential parameters were successively optimized as: Nebulizing gas flow, 3 L/min; Heating gas flow, 10 L/min; Drying gas flow, 10 L/min; Interface temperature, 300 °C; DL temperature, 250 °C; Interface and detector voltage were each set as 3.0 kV and 1.8 kV. The detection parameters such as retention time (RT), dwell time (DT), quadrupole 1 pre-rod bias (Q1), collision energy […]
Table S1 The retention time and ion equivalent parameters of 4 constituents in rat […]
Constituents Retention Precursor Precursor Product time Pre energy Pre time (min) ion species ion ion (msec) Bias (V) Bias

[2] = parameters: method as in PMID 34303214; conditions: rats, p.o. SPC 30 g crude drug/kg; doses of 1-4: 0.062, 0.11, 0.71, 1.31 mg/kg; cited from earlier work
[3] = Observed pharmacokinetics in rats after oral SPC (previous study); format: in vivo, rat; conditions: p.o. SPC
[4] = compartment model parameters, DAS 2.0, rats p.o. SPC 60 g crude drug/kg, Mean, 5 rats
[5] = statistical moment parameters, DAS 2.0, rats p.o. SPC 60 g crude drug/kg, Mean, 5 rats
[6] = statistical moment parameters, DAS 2.0, rats p.o. SPC 60 g crude drug/kg, Mean, 5 rats, in µg·h²/mL

For O=c1c(-c2ccc(O)cc2)coc2cc(O[C@@H]3O[C@H](CO)[C@@H](O)[C@H](O)[C@H]3O)ccc12 [Constituent 3, daidzin], the Papp (Caco-2 cell monolayer) is given as 4e-06 cm/s, the K10 [1, 4] is given as 0.981 h⁻¹ and the K12 [1, 4] is given as 0.402 h⁻¹. For the same compound, the K21 [1, 4] was 0.15 h⁻¹, the Ka [1, 4] was 16.131 h⁻¹ and the Tlag [1, 4] was 0 h. The V1/F [1, 4] was 37.289 L/kg, the t1/2Ka [1, 4] was 23.1 min and the t1/2α [1, 4] was 52.1 min. The concentration at 0.083 h ([1]; rat, plasma, oral, time 0.083 h, rats p.o. SPC 60 g crude drug/kg, doses of 1-4: 0.124, 0.22, 1.4, 2.62 mg/kg, 5 rats) was 16.4 ng/mL, the concentration at 0.25 h ([1]; rat, plasma, oral, time 0.25 h, rats p.o. SPC 60 g crude drug/kg, doses of 1-4: 0.124, 0.22, 1.4, 2.62 mg/kg, 5 rats) was 28 ng/mL and the concentration at 0.5 h ([1]; rat, plasma, oral, time 0.5 h, rats p.o. SPC 60 g crude drug/kg, doses of 1-4: 0.124, 0.22, 1.4, 2.62 mg/kg, 5 rats) was 21 ng/mL. For the same compound, the concentration at 0.75 h ([1]; rat, plasma, oral, time 0.75 h, rats p.o. SPC 60 g crude drug/kg, doses of 1-4: 0.124, 0.22, 1.4, 2.62 mg/kg, 5 rats) was 18.4 ng/mL, the concentration at 1 h ([1]; rat, plasma, oral, time 1 h, rats p.o. SPC 60 g crude drug/kg, doses of 1-4: 0.124, 0.22, 1.4, 2.62 mg/kg, 5 rats) was 10.9 ng/mL and the concentration at 1.5 h ([1]; rat, plasma, oral, time 1.5 h, rats p.o. SPC 60 g crude drug/kg, doses of 1-4: 0.124, 0.22, 1.4, 2.62 mg/kg, 5 rats) was 5.55 ng/mL. The concentration at 2 h ([1]; rat, plasma, oral, time 2 h, rats p.o. SPC 60 g crude drug/kg, doses of 1-4: 0.124, 0.22, 1.4, 2.62 mg/kg, 5 rats) was 3.16 ng/mL, the concentration at 3 h ([1]; rat, plasma, oral, time 3 h, rats p.o. SPC 60 g crude drug/kg, doses of 1-4: 0.124, 0.22, 1.4, 2.62 mg/kg, 5 rats) was 2.62 ng/mL and the concentration at 4 h ([1]; rat, plasma, oral, time 4 h, rats p.o. SPC 60 g crude drug/kg, doses of 1-4: 0.124, 0.22, 1.4, 2.62 mg/kg, 5 rats) was 1.56 ng/mL. It also gave a concentration at 6 h ([1]; rat, plasma, oral, time 6 h, rats p.o. SPC 60 g crude drug/kg, doses of 1-4: 0.124, 0.22, 1.4, 2.62 mg/kg, 5 rats) of 1.39 ng/mL, a concentration at 8 h ([1]; rat, plasma, oral, time 8 h, rats p.o. SPC 60 g crude drug/kg, doses of 1-4: 0.124, 0.22, 1.4, 2.62 mg/kg, 5 rats) of 1.18 ng/mL and an AUC(0-t) ([1]; rat, plasma, po, 1.4 mg/kg, compartment model parameters, DAS 2.0, rats p.o. SPC 60 g crude drug/kg, Mean, 5 rats, read-out: AUC(0-t)) of 37.1 ng·h/mL. For the same compound, the AUC(0-inf) ([1]; rat, plasma, po, 1.4 mg/kg, compartment model parameters, DAS 2.0, rats p.o. SPC 60 g crude drug/kg, Mean, 5 rats, read-out: AUC(0-∞)) was 39.5 ng·h/mL, the CL/F ([1]; rat, plasma, po, 1.4 mg/kg, compartment model parameters, DAS 2.0, rats p.o. SPC 60 g crude drug/kg, Mean, 5 rats, read-out: CL/F (converted)) was 594 mL/min/kg and the half-life ([1]; rat, plasma, po, 1.4 mg/kg, compartment model parameters, DAS 2.0, rats p.o. SPC 60 g crude drug/kg, Mean, 5 rats, read-out: t1/2β (converted)) was 2190 min. It also gave an AUC(0-t) ([1]; rat, plasma, po, 1.4 mg/kg, statistical moment parameters, DAS 2.0, rats p.o. SPC 60 g crude drug/kg, Mean, 5 rats, read-out: AUC(0-t)) of 35.5 ng·h/mL, an AUC(0-inf) ([1]; rat, plasma, po, 1.4 mg/kg, statistical moment parameters, DAS 2.0, rats p.o. SPC 60 g crude drug/kg, Mean, 5 rats, read-out: AUC(0-∞)) of 35.9 ng·h/mL and a CL/F ([1]; rat, plasma, po, 1.4 mg/kg, statistical moment parameters, DAS 2.0, rats p.o. SPC 60 g crude drug/kg, Mean, 5 rats, read-out: CLz/F (converted)) of 652 mL/min/kg. It also gave an MRT last ([1]; rat, plasma, po, 1.4 mg/kg, statistical moment parameters, DAS 2.0, rats p.o. SPC 60 g crude drug/kg, Mean, 5 rats, read-out: MRT(0-t)) of 1.83 h, an MRT inf ([1]; rat, plasma, po, 1.4 mg/kg, statistical moment parameters, DAS 2.0, rats p.o. SPC 60 g crude drug/kg, Mean, 5 rats, read-out: MRT(0-∞)) of 2.09 h and a Tmax ([1]; rat, plasma, po, 1.4 mg/kg, statistical moment parameters, DAS 2.0, rats p.o. SPC 60 g crude drug/kg, Mean, 5 rats, read-out: Tmax) of 15 min. It also gave a Vd/F ([1]; rat, plasma, po, 1.4 mg/kg, statistical moment parameters, DAS 2.0, rats p.o. SPC 60 g crude drug/kg, Mean, 5 rats, read-out: Vz/F) of 103 L/kg, a half-life ([1]; rat, plasma, po, 1.4 mg/kg, statistical moment parameters, DAS 2.0, rats p.o. SPC 60 g crude drug/kg, Mean, 5 rats, read-out: t1/2z (converted)) of 109 min and an AUC(0-t) ([1]; rat, plasma, po, 2.62 mg/kg, rats, p.o. SPC 60 g crude drug/kg, doses of 1-4: 0.124, 0.22, 1.42, 2.62 mg/kg, n = 5, read-out: AUC0→t Val.) of 35.5 ng·h/mL. It also gave an AUC(0-inf) ([1]; rat, plasma, po, 2.62 mg/kg, rats, p.o. SPC 60 g crude drug/kg, doses of 1-4: 0.124, 0.22, 1.42, 2.62 mg/kg, n = 5, read-out: AUC0→∞ Val.) of 35.9 ng·h/mL, a Tmax ([1]; rat, plasma, po, rats, p.o. SPC 60 g crude drug/kg, doses of 1-4: 0.124, 0.22, 1.42, 2.62 mg/kg, n = 5, read-out: Tmax Val.) of 15 min and a Cmax [1, 5] of 27.183 µg/L. The Cz [1, 5] was 0.117 µg/L, the “VRT(0-t)” value [1, 5] was 4.934 h^2 and the “VRT(0-∞)” value [1, 5] was 8.138 h^2. For the same compound, the elimination rate constant [1, 5] was 0.429 h⁻¹, the “AUMC(0-t)” value [1, 6] was 65.207 and the “AUMC(0-∞)” value [1, 6] was 75.236. For the same compound, the “AUC0→t Obs.” value [2] was 0.0284 µg·h/mL, the “AUC0→∞ Obs.” value [2] was 0.0305 µg·h/mL and the “Cmax Obs.” value [2] was 0.0151 µg/mL. The “Tmax Obs.” value [2] was 12.6 min and the “time of slight secondary absorption peak” value [3] was 6 h.

Source: PMC11677527, “Predicting Pharmacokinetics of Active Constituents in Spatholobi caulis by Using Physiologically Based Pharmacokinetic Models” (Pharmaceuticals, 2024)
